For seven molecules, viability, T/C and IC50 results are on record in PubChem BioAssay AID2060498 (Molecular Pharmacology Branch, DTP, NCI, 2025).

“And” between values parts separate entries of the source, which are not always exact repeats. Identical values can stand only once.

In the assay the test system is 171881-019-R-J1-PDC tumor spheroids, viability. The assay is described as follows: Anticancer human tumor 171881-019-R-J1-PDC patient-derived invasive breast carcinoma cell line growth inhibition [GQUAD]. The note with it: spheroids with HUVEC and MSC; for viability, T/C: stronger effect = lower value. The source says: DNA G-quadruplex Stabilizer Agents in Combinations in Complex Spheroids
A high-throughput screen of multi-cell type tumor spheroids was designed to identify active combinations of DNA G-quadruplex stabilizer agents and targeted small molecules. Complex spheroids include a stromal component modeled by human endothelial cells (HUVEC) and fibroblasts modeled by human mesenchymal stem cells (MSCs). The concentration ranges selected for each drug and investigational agent were based upon clinically achievable concentrations if the clinical Cmax of the agent was known.
Compounds. The drugs and investigational agents: pidnarulex (CX-5461; NSC782164), APTO-253 (NSC789042), BRACO-19 (NSC847499), peposertib (NSC802822), ceralasertib (NSC780249), elimusertib (NSC800525), camonsertib (NSC841442), AZD-1390 (NSC803789), olaparib (NSC753686), talazoparib (NSC767125), ART-558 (NSC835418), sotorasib (NSC818433), MRTX-1133 (NSC836407), SN-38 (NSC673596), topotecan (NSC609699), etoposide (NSC141540), doxorubicin (NSC123127), gemcitabine (NSC613327), 5-fluorouracil (NSC19893), paclitaxel (NSC125973), vemurafenib (NSC761431), panobinostat (NSC761190), R-306465 (JNJ-16241199; NSC773264), adavosertib (NSC754352), TP-3654 (NSC805149), carboplatin (NSC241240), KSQ-4279 (NSC840948), and staurosporine (NSC755774) were obtained from the National Cancer Institute (NCI) Developmental Therapeutics Program Chemical Repository (34). The FDA-approved anticancer drug set is available from the NCI Developmental Therapeutics Program. […] The stock solutions were prepared in dimethyl sulfoxide (DMSO, Sigma-Aldrich, St. Louis, MO, cat. D2650) at 800-fold the tested concentration and stored at -70 degrees C prior to their use. All drugs and investigational agents were tested over a range starting from a high concentration at or near the clinical Cmax and decreasing in half-log increments. If the clinical Cmax for an agent had not been determined, the highest concentration tested was 10 microM.
2.3 Cell Culture. All cells were maintained in an incubator at 37 degrees C and 5% CO2 with 95% humidity. The PDC lines were cultured according to standard operating procedures established by the NCI PDMR. All PDCs were thawed and cultured in Matrigel-coated flasks prepared with a working solution of 1X Ham's F-12 nutrient mix, without supplementation (Invitrogen, cat. 11765054), 100 U/mL penicillin-streptomycin (Invitrogen, cat. 15140122), and 2.5% Matrigel (Corning Inc., cat. 354248) for the first three passages. The 857933-349-R-J2-PDC line was cultured in 6C/Colon 1B media, which includes advanced DMEM/F-12 (Thermo Fisher Scientific, cat. 12634028), 10 mM HEPES (Thermo Fisher Scientific, cat. 15630080), 1X GlutaMAX supplement (Thermo Fisher Scientific, cat. 35050061), 0.1 mg/mL primocin (InvivoGen, cat. ant-pm-2), 10% defined fetal bovine serum, heat inactivated (HyClone Laboratories Inc., cat. SH30070.03HI), 50% L-WRN conditioned media (ATCC, cat. CRL-3276), 1.25 mM N-Acetyl-L-cysteine (Sigma-Aldrich, cat. A9165), 10 mM nicotinamide (Sigma-Aldrich, cat. N0636), 1X B-27 supplement (Thermo Fisher Scientific, cat. 17504044), 1X N-2 supplement (Thermo Fisher Scientific, cat. 17502048), 10 microM Y-27632 dihydrochloride (Tocris Bioscience, cat. 1254), and 50 ng/mL human EGF recombinant protein (Thermo Fisher Scientific, cat. PHG0311). The 485176-168-R4-J1-PDC line was cultured in Panc media, which includes all 6C/Colon 1B media components plus 100 ng/mL human FGF-10 (Thermo Fisher Scientific, cat. 100-26), 500 nM SB-431542 (Selleckchem, cat. S1067), and gastrin (Tocris, cat. 3006).
[…]
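Note: spheroids exposed to compounds for 7 days.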

`Cc1[nH]c2ccc(F)cc2c1-c1nc2c3cccnc3c3ncccc3c2[nH]1`: the viability, T/C – broadly, the ratio of treated to control – (compound 0.0316 µM) is 101% [middle of 12 runs]; the viability, T/C (compound 0.1 µM) was 103% [middle of 12 runs]; the viability, T/C (compound 10 µM) was 54.6% [middle of 12 runs]. The IC50 – broadly, the concentration needed to halve the response being measured – by setting is: (compound alone, run of 02/20/2024) 2.63 µM [middle of 8 runs]; (compound alone, run of 02/26/2024) 1.65 µM [middle of 4 runs].
In the case of `COc1ccc([C@@H](O)c2cc(-c3ncnc4cc(N5CCOCC5)ccc34)c(F)cc2Cl)nn1`, the viability, T/C (compound 0.0316 µM) was 82.4% and 94.3% and 101%; the viability, T/C (compound 0.1 µM) is 85.4% and 83% and 76.8%; the viability, T/C (compound 0.316 µM) was 72.4% and 72.6% and 69.2%; the viability, T/C (compound 1 µM) is 46.7% and 35.9% and 46.9%; the viability, T/C (compound 3.16 µM) was 13.4% and 7.19% and 13.3%; the viability, T/C (compound 10 µM) was 5.21% and 1.35% and 5.78%. The IC50 (curve of compound) is 838 nM and 629 nM and 684 nM.
Regarding `CC(=O)O[C@H]1C(=O)[C@@]2(C)[C@H]([C@H](OC(=O)c3ccccc3)[C@]3(O)C[C@H](OC(=O)[C@H](O)[C@@H](NC(=O)c4ccccc4)c4ccccc4)C(C)=C1C3(C)C)[C@]1(OC(C)=O)CO[C@@H]1C[C@@H]2O` + CN(C)c1ccc(Nc2c3ccc(NC(=O)CCN4CCCC4)cc3nc3cc(NC(=O)CCN4CCCC4)ccc23)cc1, the IC50 is < 31.6 nM (curve of first compound, second compound 0.0316 µM); < 31.6 nM (curve of first compound, second compound 0.1 µM); < 31.6 nM (curve of first compound, second compound 0.316 µM); < 31.6 nM (curve of first compound, second compound 1 µM); < 31.6 nM (curve of first compound, second compound 3.16 µM); < 31.6 nM (curve of first compound, second compound 10 µM). In addition, the viability, T/C is, setting by setting: (second compound 0.0316 µM, first compound 0.0316 µM) 43.1%; (second compound 0.0316 µM, first compound 0.1 µM) 29.6%; (second compound 0.0316 µM, first compound 0.316 µM) 29.1%; (second compound 0.0316 µM, first compound 1 µM) 25.7%; (second compound 0.0316 µM, first compound 3.16 µM) 27.4%; (second compound 0.0316 µM, first compound 10 µM) 26.6%. Also, the viability, T/C runs as follows: (second compound 0.1 µM, first compound 0.0316 µM) 44.7%; (second compound 0.1 µM, first compound 0.1 µM) 32.1%; (second compound 0.1 µM, first compound 0.316 µM) 26.8%; (second compound 0.1 µM, first compound 1 µM) 28.4%; (second compound 0.1 µM, first compound 3.16 µM) 26.4%; (second compound 0.1 µM, first compound 10 µM) 25.6%. In addition, the viability, T/C reads like this: (second compound 0.316 µM, first compound 0.0316 µM) 25.1%; (second compound 0.316 µM, first compound 0.1 µM) 22.9%; (second compound 0.316 µM, first compound 0.316 µM) 20.6%; (second compound 0.316 µM, first compound 1 µM) 14.4%; (second compound 0.316 µM, first compound 3.16 µM) 19.6%; (second compound 0.316 µM, first compound 10 µM) 15.7%. The viability, T/C runs as follows: (second compound 1 µM, first compound 0.0316 µM) 3.67%; (second compound 1 µM, first compound 0.1 µM) 2.91%; (second compound 1 µM, first compound 0.316 µM) 3.17%; (second compound 1 µM, first compound 1 µM) 2.09%; (second compound 1 µM, first compound 3.16 µM) 2.08%; (second compound 1 µM, first compound 10 µM) 2.43%. For the same molecule, the viability, T/C (second compound 3.16 µM, first compound 0.0316 µM) was 0.23%; the viability, T/C (second compound 3.16 µM, first compound 0.1 µM) was 0.45%; the viability, T/C (second compound 3.16 µM, first compound 0.316 µM) is 0.18%; the viability, T/C (second compound 3.16 µM, first compound 1 µM) was 0.19%; the viability, T/C (second compound 3.16 µM, first compound 3.16 µM) was 0.24%; the viability, T/C (second compound 3.16 µM, first compound 10 µM) is 0.32%. The viability, T/C is 0.1% (second compound 10 µM, first compound 0.0316 µM); 0.18% (second compound 10 µM, first compound 0.1 µM); 0.1% (second compound 10 µM, first compound 0.316 µM); 0.11% (second compound 10 µM, first compound 1 µM); 0.27% (second compound 10 µM, first compound 3.16 µM); 0.19% (second compound 10 µM, first compound 10 µM).
Take `O=c1[nH]cc(F)c(=O)[nH]1`: the viability, T/C reads like this: (compound 0.0316 µM) 82.5% and 74.1% and 82.2%; (compound 0.1 µM) 61.5% and 60.6% and 75.6%; (compound 0.316 µM) 61.1% and 61.8% and 73.7%; (compound 1 µM) 57.7% and 55.4% and 66.4%; (compound 3.16 µM) 51.6% and 51.2% and 63.5%; (compound 10 µM) 52.5% and 54.1% and 66.9%. For the setting “curve of compound”, the IC50 is > 10000 nM.
For `Cn1ncnc1[C@H]1c2n[nH]c(=O)c3cc(F)cc(c23)N[C@@H]1c1ccc(F)cc1`, the viability, T/C (compound 0.000999 µM) is 108% and 102% and 105%; the viability, T/C (compound 0.00316 µM) is 94.8% and 103% and 86.1%; the viability, T/C (compound 0.00999 µM) was 95% and 95.7% and 88.2%; the viability, T/C (compound 0.0316 µM) was 86.3% and 102% and 97.5%; the viability, T/C (compound 0.0999 µM) is 88.8% and 91.6% and 81.5%; the viability, T/C (compound 0.316 µM) is 94.1% and 80.5% and 73.1%. For the setting “curve of compound”, the IC50 was > 316 nM.
For `CCCS(=O)(=O)Nc1ccc(F)c(C(=O)c2c[nH]c3ncc(-c4ccc(Cl)cc4)cc23)c1F`, the viability, T/C by setting is: (compound 0.0316 µM) 93.6% and 96.9% and 102%; (compound 0.1 µM) 104% and 92.1% and 101%; (compound 0.316 µM) 105% and 114% and 98.3%; (compound 1 µM) 113% and 97.5% and 123%; (compound 3.16 µM) 96.5% and 102% and 108%; (compound 10 µM) 51% and 50.6% and 74.3%. Besides, the IC50 (curve of compound) was > 10000 nM.
As to `Cc1cccc(N(C)C(=O)C2C(O)CCN2c2nc(C)cc(C(F)(F)F)c2C#N)c1` (configuration not stated), the viability, T/C (compound 0.0316 µM) was 90.3% and 105% and 91.7%; the viability, T/C (compound 0.1 µM) was 101% and 88.7% and 99.2%; the viability, T/C (compound 0.316 µM) was 87.6% and 91.7% and 98.8%; the viability, T/C (compound 1 µM) was 104% and 95.4% and 100%; the viability, T/C (compound 3.16 µM) is 98.1% and 85.9% and 89.5%; the viability, T/C (compound 10 µM) was 84.6% and 77.5% and 71.8%. Besides, under “curve of compound”, the IC50 is > 10000 nM.
